Measurements: PubChem BioAssay (NCI)
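Cells were grown in 96-well plates and exposed to each compound for 48 hours at five concentrations; endpoints were interpolated linearly between bracketing concentrations, or set to the highest concentration if not reached. GI50 = concentration required for 50% inhibition of growth. TGI: concentration producing complete growth inhibition.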

Experiments:
Experiment in all cases: inhibition of tumour cell growth, NCI panel, 48 h; in the data active = GI50 below about 0.43 µM; inactive = the rest
UACC-62 melanoma = tested on: UACC-62 melanoma
SNB-19 CNS = tested on: SNB-19 CNS
OVCAR-8 ovarian = tested on: OVCAR-8 ovarian
SK-MEL-28 melanoma = tested on: SK-MEL-28 melanoma
786-0 renal = tested on: 786-0 renal
MOLT-4 leukemia = tested on: MOLT-4 leukemia
HS 578T breast = tested on: HS 578T breast
SF-295 CNS = tested on: SF-295 CNS
IGROV1 ovarian = tested on: IGROV1 ovarian
K-562 leukemia = tested on: K-562 leukemia
HCT-15 colon = tested on: HCT-15 colon
A498 renal = tested on: A498 renal
SF-539 CNS = tested on: SF-539 CNS
A549 NSCLC = tested on: A549 NSCLC
NCI-H226 lung = tested on: NCI-H226 lung
RXF 393 renal = tested on: RXF 393 renal
SK-MEL-2 melanoma = tested on: SK-MEL-2 melanoma
KM12 colon = tested on: KM12 colon
OVCAR-3 ovarian = tested on: OVCAR-3 ovarian
CCRF-CEM leukemia = tested on: CCRF-CEM leukemia
HT29 colon = tested on: HT29 colon
PC-3 prostate = tested on: PC-3 prostate
SF-268 CNS = tested on: SF-268 CNS
LOX IMVI melanoma = tested on: LOX IMVI melanoma
MCF7 breast = tested on: MCF7 breast
T-47D breast = tested on: T-47D breast
RPMI-8226 leukemia = tested on: RPMI-8226 leukemia
NCI-H522 lung = tested on: NCI-H522 lung
HL-60(TB) leukemia = tested on: HL-60(TB) leukemia
SW-620 colon = tested on: SW-620 colon
HCT-116 colon = tested on: HCT-116 colon
ACHN renal = tested on: ACHN renal
HOP-62 NSCLC = tested on: HOP-62 NSCLC
NCI/ADR-RES ovarian = tested on: NCI/ADR-RES ovarian
MALME-3M melanoma = tested on: MALME-3M melanoma
HOP-92 NSCLC = tested on: HOP-92 NSCLC
M14 melanoma = tested on: M14 melanoma
COLO 205 colon = tested on: COLO 205 colon
OVCAR-5 ovarian = tested on: OVCAR-5 ovarian
UACC-257 melanoma = tested on: UACC-257 melanoma
U251 CNS = tested on: U251 CNS
TK-10 renal = tested on: TK-10 renal
SN12C renal = tested on: SN12C renal
NCI-H23 lung = tested on: NCI-H23 lung
CAKI-1 renal = tested on: CAKI-1 renal
SNB-75 CNS = tested on: SNB-75 CNS
MDA-MB-435 = tested on: MDA-MB-435
SK-OV-3 ovarian = tested on: SK-OV-3 ovarian
MDA-MB-231 breast = tested on: MDA-MB-231 breast
EKVX NSCLC = tested on: EKVX NSCLC
BT-549 breast = tested on: BT-549 breast
UO-31 renal = tested on: UO-31 renal
OVCAR-4 ovarian = tested on: OVCAR-4 ovarian
NCI-H460 lung = tested on: NCI-H460 lung
SK-MEL-5 melanoma = tested on: SK-MEL-5 melanoma
HCC-2998 colon = tested on: HCC-2998 colon
SR leukemia = tested on: SR leukemia

COc1cc(/C=C2\C(=O)Nc3cccc(Cl)c32)cc(OC)c1OC
25.1 µM: TGI (SR leukemia)
36.9 µM: TGI (RXF 393 renal)
84 µM: TGI (SNB-75 CNS)
1.34 µM: TGI (MOLT-4 leukemia)
93.2 µM: TGI (HOP-92 NSCLC)
active: GI50 (MOLT-4 leukemia) 0.142 µM | GI50 (CCRF-CEM leukemia) 0.0529 µM
0.527 µM: TGI (CCRF-CEM leukemia)
> 100 µM: TGI (UACC-62 melanoma) | TGI (SNB-19 CNS) | TGI (OVCAR-8 ovarian) | TGI (SK-MEL-28 melanoma) | TGI (786-0 renal) | TGI (HS 578T breast) | TGI (SF-295 CNS) | TGI (IGROV1 ovarian) | TGI (K-562 leukemia) | TGI (HCT-15 colon) | TGI (A498 renal) | TGI (SF-539 CNS) | TGI (A549 NSCLC) | TGI (NCI-H226 lung) | TGI (SK-MEL-2 melanoma) | TGI (KM12 colon) | TGI (OVCAR-3 ovarian) | TGI (HT29 colon) | TGI (PC-3 prostate) | TGI (SF-268 CNS) | TGI (LOX IMVI melanoma) | TGI (MCF7 breast) | TGI (T-47D breast) | TGI (RPMI-8226 leukemia) | TGI (NCI-H522 lung) | TGI (HL-60(TB) leukemia) | TGI (SW-620 colon) | TGI (HCT-116 colon) | TGI (ACHN renal) | TGI (HOP-62 NSCLC) | TGI (NCI/ADR-RES ovarian) | TGI (MALME-3M melanoma) | TGI (M14 melanoma) | TGI (COLO 205 colon) | TGI (OVCAR-5 ovarian) | TGI (UACC-257 melanoma) | TGI (U251 CNS) | TGI (TK-10 renal) | TGI (SN12C renal) | TGI (NCI-H23 lung) | TGI (CAKI-1 renal) | TGI (MDA-MB-435) | TGI (SK-OV-3 ovarian) | TGI (MDA-MB-231 breast) | TGI (EKVX NSCLC) | TGI (BT-549 breast) | TGI (UO-31 renal) | TGI (OVCAR-4 ovarian) | TGI (NCI-H460 lung) | TGI (SK-MEL-5 melanoma) | TGI (HCC-2998 colon)
inactive: GI50 (UACC-62 melanoma) > 100 µM | GI50 (SNB-19 CNS) 60.1 µM | GI50 (OVCAR-8 ovarian) > 100 µM | GI50 (SK-MEL-28 melanoma) > 100 µM | GI50 (786-0 renal) 41.8 µM | GI50 (HS 578T breast) > 100 µM | GI50 (SF-295 CNS) > 100 µM | GI50 (IGROV1 ovarian) > 100 µM | GI50 (K-562 leukemia) 29.2 µM | GI50 (HCT-15 colon) > 100 µM | GI50 (A498 renal) > 100 µM | GI50 (SF-539 CNS) > 100 µM | GI50 (A549 NSCLC) > 100 µM | GI50 (NCI-H226 lung) > 100 µM | GI50 (RXF 393 renal) 8.79 µM | GI50 (SK-MEL-2 melanoma) > 100 µM | GI50 (KM12 colon) > 100 µM | GI50 (OVCAR-3 ovarian) > 100 µM | GI50 (HT29 colon) > 100 µM | GI50 (PC-3 prostate) > 100 µM | GI50 (SF-268 CNS) > 100 µM | GI50 (LOX IMVI melanoma) > 100 µM | GI50 (MCF7 breast) > 100 µM | GI50 (T-47D breast) > 100 µM | GI50 (RPMI-8226 leukemia) 53.7 µM | GI50 (NCI-H522 lung) > 100 µM | GI50 (HL-60(TB) leukemia) 11 µM | GI50 (SW-620 colon) > 100 µM | GI50 (HCT-116 colon) > 100 µM | GI50 (ACHN renal) 53.2 µM | GI50 (HOP-62 NSCLC) 32.6 µM | GI50 (NCI/ADR-RES ovarian) > 100 µM | GI50 (MALME-3M melanoma) > 100 µM | GI50 (HOP-92 NSCLC) 23.9 µM | GI50 (M14 melanoma) > 100 µM | GI50 (COLO 205 colon) > 100 µM | GI50 (OVCAR-5 ovarian) 46.4 µM | GI50 (UACC-257 melanoma) > 100 µM | GI50 (U251 CNS) 41 µM | GI50 (TK-10 renal) > 100 µM | GI50 (SN12C renal) > 100 µM | GI50 (NCI-H23 lung) > 100 µM | GI50 (CAKI-1 renal) > 100 µM | GI50 (SNB-75 CNS) 21.9 µM | GI50 (MDA-MB-435) > 100 µM | GI50 (SK-OV-3 ovarian) > 100 µM | GI50 (MDA-MB-231 breast) 33.3 µM | GI50 (EKVX NSCLC) > 100 µM | GI50 (BT-549 breast) > 100 µM | GI50 (UO-31 renal) > 100 µM | GI50 (OVCAR-4 ovarian) > 100 µM | GI50 (NCI-H460 lung) > 100 µM | GI50 (SK-MEL-5 melanoma) > 100 µM | GI50 (HCC-2998 colon) > 100 µM | GI50 (SR leukemia) 1.55 µM
